Key:
Type in all cases: cell-based
wild type BaF3 = assay: Growth inhibition of wild type BaF3 cells (broad-spectrum toxicity); conditions: Mus musculus, BaF3, 48 h, MTS, Table 12
Method: (§1) The activity of compounds against ALK kinase was evaluated by inhibiting the growth of cellular ALK kinase EML4-ALK-BaF3, EML4-ALK (L1196M)-BaF3, NPM-ALK-BaF3, and wild type BaF3 (Proc. Natl. Acad. Sci. USA., 2006, 103, 3153-8.) The growth of cellular ALK kinase EML4-ALK-BaF3, EML4-ALK(L1196M)-BaF3, and NPM-ALK-BaF3 depends on their kinase activity. If compounds can inhibit the activity of ALK kinase or the activity of ALK signaling pathway, they can inhibit the growth of ALK transformed Ba/F3 cells. […] The broad-spectrum toxicity of compounds can be evaluated by determining the effect of the compounds on the growth of wild type BaF3 cells.
(§2) 1) Medium: DMEM (Dulbecco's modified eagle medium) or RPMI1640 (containing 10% fetal bovine serum, 100 μg/mL ampicillin, 100 μg/mL streptomycin).)
(§3) Reagents: MTS solution (2 mg/mL MTS (3-(4,5-dimethylthiazol-2-yl)-5-(3-carboxymethoxyphenyl)-2-(4-sulfophenyl)-2H-tetrazolium, inner salt); 100 μg/mL PES ([…])).
(§4) 3) Test of compound: Transformed Ba/F3 cells (EML4-ALK-BaF3, EML4-ALK(L1196M)-BaF3, NPM-ALK-BaF3) (2×10^4/well) were distributed into 96-well plates, with volume of cell sap of 90 μL, 10 μL of compounds in gradient concentration (the highest concentration 10 was μM, followed by 1/3 step by step dilution, a total of 8 concentrations were set, the system contained 0.1% DMSO (dimethyl sulfoxide)). The cell plates mixed with compounds were cultured in a cell incubator (37° C.; 5% CO2) for 48 hours, and the added 20 μL of MTS reaction solution, mixed and incubated in cell incubator (37° C.; 5% CO2) for 1-4 hours. The OD value at a wavelength of 490 nm was measured using eliasa (VARIOSKAN FLASH, Thermo). Three parallels were set up for each group, with a final concentration of 0.1% DMSO as negative control, and with medium without cells and compounds as blank control. The inhibition rate of cell growth was calculated by the following formula: Cell inhibition rate %=1−(OD experimental group−OD blank group)/(OD negative group−OD blank group)*100%
(§5) 4) Calculation of IC50 value: the semi inhibitory concentration of the compound acting on the cells was calculated using GradPad Prism 5 software according to the cell inhibitory rate measured.

EML4-ALK (L1196M)-BaF3 = target: T1, EML4-ALK (L1196M)-BaF3 (Homo sapiens, UniProt Q9UM73, L1196M); assay: Growth inhibition of EML4-ALK (L1196M) transformed BaF3 cells (MTS); conditions: 48 hours, Table 12, read-out: L1196M (IC50 nM)
T1 construct: expressed in transfected cells; host or cells: Ba/F3 cells; the other entry of the earlier key: EML4 (Q9HC35, Echinoderm microtubule-associated protein-like 4)
Method: (§6) If compounds can inhibit the activity of ALK kinase or the activity of ALK signaling pathway, they can inhibit the growth of ALK transformed Ba/F3 cells. […] The broad-spectrum toxicity of compounds can be evaluated by determining the effect of the compounds on the growth of wild type BaF3 cells.
as §2, §3
as §4, with “control.” for “control. The inhibition rate of cell growth was calculated by the following formula: Cell inhibition rate %=1−(OD experimental group−OD blank group)/(OD negative group−OD blank group)*100%”
as §5

NPM-ALK-BaF3 = target: T2, NPM-ALK-BaF3 (Homo sapiens, UniProt Q9UM73); assay: Growth inhibition of NPM-ALK transformed BaF3 cells (MTS); conditions: 48 hours, Table 12
T2 construct: expressed in transfected cells; host or cells: Ba/F3 cells; the other entry of the earlier key: NPM1 (P06748, Nucleophosmin)
Method: as §1, §2, §3, §4, §5

EML4-ALK-BaF3 = target: T3, EML4-ALK-BaF3 (Homo sapiens, UniProt Q9UM73); assay: Growth inhibition of EML4-ALK transformed BaF3 cells (MTS); conditions: for IC50: EML4-ALK-BaF3 cells, 48 hours, MTS, Table 12
T3 construct: expressed in transfected cells; host or cells: Ba/F3 cells; the other entry of the earlier key: EML4 (Q9HC35, Echinoderm microtubule-associated protein-like 4)
Method: as §6, §2, §3
as §4, with “control.” for “control. The inhibition rate of cell growth was calculated by the following formula: Cell inhibition rate %=1−(OD experimental group−OD blank group)/(OD negative group−OD blank group)*100%”
as §5

Row | IC50 (EML4-ALK (L1196M)-BaF3) [nM] | IC50 (NPM-ALK-BaF3) [nM] | IC50 (EML4-ALK-BaF3) [nM] | targeting selectivity (EML4-ALK-BaF3; ratio of IC50 between wild-type BaF3 and ALK transformed BaF3 cells) | SMILES | IC50 (wild type BaF3) [nM]
1 | ~5890 | 5120 | 3530 | – | COc1cc(N2CCN(C)CC2)ccc1Nc1nc(Nc2ccccc2S(C)(=O)=O)c2c(ccn2C)n1 [IIC-1] | ~8670
2 | ~3510 | ~3460 | 1510 | – | COc1cc(N2CCC(N3CCN(C)CC3)CC2)ccc1Nc1nc(Nc2ccccc2S(C)(=O)=O)c2c(ccn2C)n1 [IIC-2] | 5050
3 | 8990 | 11800 | 8290 | – | Cn1ccc2nc(Nc3ccc(N4CCC(O)CC4)cc3)nc(Nc3ccccc3S(C)(=O)=O)c21 [IIC-3] | ~10600
4 | 28200 | > 10000 | > 10000 | – | Cn1ccc2nc(Nc3ccc(S(N)(=O)=O)cc3)nc(Nc3ccccc3S(C)(=O)=O)c21 [IIC-4] | > 10000
5 | 4410 | 3780 | ~3240 | – | CN1CCN(c2ccc(Nc3nc(Nc4ccccc4S(C)(=O)=O)c4c(ccn4C)n3)cc2)CC1 [IIC-5] | ~7730
6 | > 10000 | > 10000 | > 10000 | – | CCOc1cc(N2CCC(O)CC2)ccc1Nc1nc(Nc2ccccc2S(C)(=O)=O)c2c(ccn2C)n1 [IIC-6] | > 10000
7 | ~2960 | 2260 | 546 | – | COc1cc(N2CCN(C)CC2)ccc1Nc1nc(Nc2ccccc2S(=O)(=O)C(C)C)c2c(ccn2C)n1 [IID-1] | ~8180
8 | 391 | 829 | 330 | good targeting selectivity | COc1cc(N2CCC(N3CCN(C)CC3)CC2)ccc1Nc1nc(Nc2ccccc2S(=O)(=O)C(C)C)c2c(ccn2C)n1 [IID-2] | 2910
9 | 6650 | 6990 | 2160 | – | CC(C)S(=O)(=O)c1ccccc1Nc1nc(Nc2ccc(N3CCC(O)CC3)cc2)nc2ccn(C)c12 [IID-3] | > 10000
10 | ~6440 | ~6350 | ~3290 | – | CC(C)S(=O)(=O)c1ccccc1Nc1nc(Nc2ccc(S(N)(=O)=O)cc2)nc2ccn(C)c12 [IID-4] | 7540
11 | ~1120 | ~2580 | ~1130 | – | CC(C)S(=O)(=O)c1ccccc1Nc1nc(Nc2ccc(N3CCN(C)CC3)cc2)nc2ccn(C)c12 [IID-5] | ~7940
12 | ~3000 | ~3130 | 1600 | – | CCOc1cc(N2CCC(O)CC2)ccc1Nc1nc(Nc2ccccc2S(=O)(=O)C(C)C)c2c(ccn2C)n1 [IID-6] | > 10000
13 | ~2780 | ~982 | 783 | – | CCOc1cc(C(=O)N2CCC(N3CCN(C)CC3)CC2)ccc1Nc1nc(Nc2ccccc2S(=O)(=O)C(C)C)c2c(ccn2C)n1 [IID-7] | ~2580
14 | 4770 | ~3460 | 1760 | – | Cc1cc(Nc2nc(Nc3ccccc3S(=O)(=O)C(C)C)c3c(ccn3C)n2)c(OC(C)C)cc1C1CCN(C)CC1 [IID-8] | ~8380
15 | ~2880 | 4740 | 2240 | – | COc1cc(C2CCN(C)CC2)c(C)cc1Nc1nc(Nc2ccccc2S(=O)(=O)C(C)C)c2c(ccn2C)n1 [IID-9] | ~8300
16 | 3440 | 4870 | 2370 | – | COC(=O)c1ccccc1Nc1nc(Nc2ccc(N3CCN(C)CC3)cc2OC)nc2ccn(C)c12 [IIG-1] | 5170
17 | 3730 | 4890 | ~3880 | – | COC(=O)c1ccccc1Nc1nc(Nc2ccc(N3CCC(N4CCN(C)CC4)CC3)cc2OC)nc2ccn(C)c12 [IIG-2] | ~7940

Row | IC50 (EML4-ALK (L1196M)-BaF3) [nM] | IC50 (NPM-ALK-BaF3) [nM] | IC50 (EML4-ALK-BaF3) [nM] | targeting selectivity (EML4-ALK-BaF3; ratio of IC50 between wild-type BaF3 and ALK transformed BaF3 cells) | SMILES | IC50 (wild type BaF3) [nM]
18 | 2790 | 3180 | 4260 | – | COC(=O)c1ccccc1Nc1nc(Nc2ccc(N3CCC(O)CC3)cc2)nc2ccn(C)c12 [IIG-3] | 5040
19 | 3950 | 4210 | ~1330 | – | COC(=O)c1ccccc1Nc1nc(Nc2ccc(C(=O)N3CCC(N4CCN(C)CC4)CC3)cc2OC)nc2ccn(C)c12 [IIG-4] | 4870
20 | 1840 | 1750 | 1620 | – | COC(=O)c1cccc(Nc2nc(Nc3ccc(N4CCN(C)CC4)cc3OC)nc3ccn(C)c23)c1 [IIH-1] | 4940
21 | 1810 | 4470 | 1970 | – | COC(=O)c1cccc(Nc2nc(Nc3ccc(N4CCC(O)CC4)cc3)nc3ccn(C)c23)c1 [IIH-2] | 2830
22 | 1690 | ~2740 | ~1360 | – | COc1cc(N2CCN(C)CC2)ccc1Nc1nc(NCc2ccccc2SC)c2c(ccn2C)n1 [III-1] | ~2780
23 | > 10000 | > 10000 | > 10000 | – | CSc1ccccc1CNc1nc(Nc2ccc(N3CCC(O)CC3)cc2)nc2ccn(C)c12 [III-2] | > 10000
24 | 4000 | 3710 | 3200 | – | CSc1ccccc1CNc1nc(Nc2ccc(S(N)(=O)=O)cc2)nc2ccn(C)c12 [III-3] | ~3340
25 | 544 | 627 | ~865 | – | COc1cc(N2CCN(C)CC2)ccc1Nc1nc(NCc2ccccc2SC(C)C)c2c(ccn2C)n1 [IIJ-1] | ~911
26 | 1610 | 1610 | 1710 | – | CC(C)Sc1ccccc1CNc1nc(Nc2ccc(N3CCC(O)CC3)cc2)nc2ccn(C)c12 [IIJ-2] | ~2860
27 | 9700 | > 10000 | > 10000 | – | CC(C)Sc1ccccc1CNc1nc(Nc2ccc(S(N)(=O)=O)cc2)nc2ccn(C)c12 [IIJ-3] | > 10000
28 | 2100 | 1980 | ~2700 | – | COc1cc(N2CCN(C)CC2)ccc1Nc1nc(NCc2ccccc2S(C)(=O)=O)c2c(ccn2C)n1 [IIK-1] | 3280
29 | ~2950 | ~3420 | ~3150 | – | COc1cc(N2CCC(N3CCN(C)CC3)CC2)ccc1Nc1nc(NCc2ccccc2S(C)(=O)=O)c2c(ccn2C)n1 [IIK-2] | ~2950
30 | > 10000 | > 10000 | > 10000 | – | Cn1ccc2nc(Nc3ccc(N4CCC(O)CC4)cc3)nc(NCc3ccccc3S(C)(=O)=O)c21 [IIK-3] | > 10000
31 | ~2560 | 1880 | 1430 | – | CN1CCN(c2ccc(Nc3nc(NCc4ccccc4S(C)(=O)=O)c4c(ccn4C)n3)cc2)CC1 [IIK-5] | ~2870
32 | > 10000 | > 10000 | > 10000 | – | COc1cc(C(=O)N2CCC(N3CCN(C)CC3)CC2)ccc1Nc1nc(NCc2ccccc2S(C)(=O)=O)c2c(ccn2C)n1 [IIK-6] | > 10000
33 | 1590 | 1350 | 1300 | – | COc1cc(N2CCN(C)CC2)ccc1Nc1nc(NCc2ccccc2S(=O)(=O)C(C)C)c2c(ccn2C)n1 [IIL-1] | ~2610

From patent publication US10508118B2, “Pyrimidopyrrole compounds, method for preparing the same, pharmaceutical compositions comprising the same and uses thereof” (Xiamen University, priority 2015, dated 2019)
